Test results: patent publication US5750516A, “Phosphoric diester” (Senju Pharmaceutical Co., Ltd., priority 1995, dated 1998)

How the values were obtained:
[1] = test system: lipid peroxidation in rat brain homogenate; assay: Autooxidation (lipid peroxidation) of the rat brain homogenate, MDA by TBA method; format: biochemical, Rats of Wistar strain; settings: for Inhibition (%) of lipid peroxidation in rat brain homogenate: 37° C., 30 minutes, pH 7.4
Method: Rats of Wistar strain (male, 11 weeks old) were used. The animal was decapitated and the brain was enucleated and homogenized in 4 ml/gram of 50 mM phosphate-buffered saline (pH 7.4). The homogenate was centrifuged (1000 g, 10 min.) and the supernatant was harvested. The test solution was set to 10^-7 -10^-4 M (dissolved at a final ethanol concentration of 1%). To 100 μl of the test solution was added 200 μl of the brain homogenate as well as 700 μl of phosphate-buffered saline and the mixture was incubated at 37° C. for 30 minutes for lipid peroxidation. The reaction was stopped with 200 μl of 35% perchloric acid and centrifuged (1300 g, 10 min.) and the MDA (malondialdehyde) value of the supernatant was determined by the TBA (thiobarbituric acid) method.

[2] = DPPH (1,1-Diphenyl-2-picrylhydrazyl) radical scavenging action; format: biochemical; settings: for Inhibition (%) (scavenging effect on DPPH radical): 20 minutes, 517 nm
Method: To 2.7 ml of 0.11 mM-DPPH/ethanol was added 300 μl of the test solution and the mixture was stirred and allowed to stand for 20 minutes. Then, the absorbance was measured at 517 nm. The radical scavenging effect (%) of each test solution was calculated by means of the following equation. [formula]

Cc1c(C)c2c(c(C)c1OP(=O)([O-])O[C@@H](CO)[C@H]1OC(=O)C(O)=C1O)CCC(C)(CCCC(C)CCCC(C)CCCC(C)C)O2.[K+] (stereo partly drawn) [the present compound, L-ascorbic acid 5-[3,4-dihydro-2,5,7,8-tetramethyl-2-(4,8,12-trimethyltridecyl)-2H-1-benzopyran-6-yl hydrogen phosphate] potassium]
Inhibition (%) of lipid peroxidation in rat brain homogenate ([1]; 10^-4 M): 98.5% | Inhibition (%) of lipid peroxidation in rat brain homogenate ([1]; 10^-5 M): 98.7% | Inhibition (%) of lipid peroxidation in rat brain homogenate ([1]; 10^-6 M): 93.3% | inhibition of autooxidation of the rat brain homogenate (in words) ([1]; 10^-7 -10^-4 M): inhibits autooxidation of the rat brain homogenate to a remarkable extent | Inhibition (%) of lipid peroxidation in rat brain homogenate ([1]; 10^-7 M): 24.7% | Inhibition (%) (scavenging effect on DPPH radical) ([2]; 5 × 10^-5 M): 71.7% | Inhibition (%) (scavenging effect on DPPH radical) ([2]; 10^-3 M): 96.7% | Inhibition (%) (scavenging effect on DPPH radical) ([2]; 10^-4 M): 97.3% | Inhibition (%) (scavenging effect on DPPH radical) ([2]; 10^-5 M): 13.1% | scavenging of DPPH radicals (in words) ([2]; 10^-5 to 10^-3 M): scavenges DPPH radicals to a remarkable extent
